Results reported in publication PMC6429262, “Design and Synthesis of Novel Anti-Proliferative Emodin Derivatives and Studies on their Cell Cycle Arrest, Apoptosis Pathway and Migration” (Molecules, 2019).

What was measured:
Type in all cases: cell-based, human
cytochrome c = assay: Western blot, cytochrome c; conditions: 48 h
Method: (§1) Total cell lysates from cultured HepG2 cells treated with different concentrations of compound 7a for 48 h were obtained by lysing the cells in ice-cold RIPA buffer (1 PBS, 1% NP-40, 0.5% sodium deoxycholate and 0.1% SDS) containing […] PMSF, 5 mg/mL aprotinin, 5 mg/mL leupeptin, 5 mg/mL pepstatin and […] NaF. After centrifugation at 12,000 rpm for 10 min, the protein in the supernatant was quantified by the Bradford method (BIO-RAD, Hercules, CA, USA) using a Multimode Varioscan instrument (Thermo Fischer Scientific, Waltham, MA, USA). Twenty micrograms of protein per lane was applied in 12% SDS polyacrylamide gel. After electrophoresis, the protein was transferred to a polyvinylidine difluoride membrane (Amersham Biosciences, Marlborough, MA, USA). The membrane was blocked at room temperature for 2 h in TBST containing 5% blocking powder (Santa Cruz, Dallas, TX, USA). The membrane was washed with TBST for 5 min, and the primary antibody was added and incubated at 4 °C overnight (O/N). Bax (5023, CST, Danvers, MA, USA), Bcl-2 (15071, CST), cytochrome c (4280, CST), procaspase-9 (AB138412, Abcam, Cambridge, MA, USA), procaspase-3 (AB32150, Abcam), caspase-3 (66470-2-lg, Proteintech Group, Rosemont, IL, USA) and GAPDH (AB8245, Abcam) antibodies were employed. After three TBST washes, the membrane was incubated with the corresponding horseradish peroxidase-labeled secondary antibody (1:5000) (Santa Cruz) at room temperature for 2 h. Membranes were washed with TBST for 15 min five times and the protein blots were visualized with chemiluminescence reagent (Thermo Fischer Scientific Ltd.). The X-ray films were developed with a developer and fixed with fixer solution. The grey levels were analyzed using ImageQuant LAS 4000 system (GE, Marlborough, MA, USA).

Bcl-2 = assay: Western blot, Bcl-2; conditions: 48 h
Method: as §1

procaspase-3 = assay: Western blot, procaspase-3; conditions: 48 h
Method: as §1

HepG2 cells [1] = assay: Apoptosis analysis, annexin V-FITC/PI flow cytometry; conditions: for Apoptosis percentage, Early apoptosis / Apoptosis percentage, Late apoptosis / Apoptosis percentage, Overall apoptosis: mean ± SD of three experiments; for percentage of apoptotic cells: Figure 3A
Method: In order to verify whether compound 7a is able to induce apoptosis in HepG2 cells, we utilized FITC-Annexin V/PI staining and estimated the percentage of apoptotic cells by flow cytometry. We noted a concentration-dependent increase in the percentage of apoptotic cells when the cells were treated with compound 7a for 48 h at concentrations 2.5, 5, and 10 μM. […] Apoptosis was discriminated with the annexin V-FITC/PI test. Cells were seeded at 2 × 10^5/well in 10% FBS-DMEM into 6-well plates and treated with compounds 7a for 48 h. The cells were washed twice with cold phosphate buffered saline (PBS) and then resuspend in 1× Binding Buffer (0.1M Hepes/NaOH (pH 7.4), 1.4M NaCl, 25 mM CaCl2)) at a concentration of 1 × 10^5 cells/mL. 100 μL of the solution (1 × 10^4 cells) was transferred to a 5 mL culture tube, and 5 μL of FITC Annexin V (BD, Pharmingen, Franklin Lakes, NJ, USA) and 5 μL PI were added to each tube. The cells were gently resuspended by vortexing, and then were incubated for 30 min at RT (25 °C) in the dark. After incubation, 200 μL PBS was added to each tube. The analysis was performed with the system software (CellQuest; BD Biosciences, Franklin Lakes, NJ, USA). Analysis is as follows: lower left quadrant, viable cells (Annexin V−/PI−); lower right quadrant, early apoptotic cells (Annexin V+/PI−); upper right quadrant, late apoptotic cells (annexin V+/PI+); upper left quadrant, necrotic cells (annexin V−/PI+). The percentage of cells positive for PI and Annexin V-FITC was reported inside the quadrants.

caspase-3 = assay: Western blot, cleaved caspase-3; conditions: 48 h
Method: as §1

procaspase-9 = assay: Western blot, procaspase-9; conditions: 48 h
Method: as §1

HepG2 cells [2] = assay: Cell cycle analysis, PI staining flow cytometry; set-up: Dip G1 (G1 phase cells) / Dip S (S phase cell population): dose or concentration left out as unconfirmed; conditions: for Cell cycle distribution, G0/G1 / Cell cycle distribution, G2/M / Cell cycle distribution, S: mean ± SD of three experiments
Method: To further examine how compound 7a suppressed the growth of HepG2 cells, the effect of compound 7a on cell cycle distribution with different concentrations was investigated by flow cytometric analysis following staining the DNA with propidium iodide (PI).
The HepG2 cells were treated with indicated concentrations of compound 7a. After incubation for 48 h, cells were washed twice with ice-cold PBS, fixed and permeabilized with ice cold 70% ethanol at −20 °C overnight. The cells were treated with 100 μg/mL RNase A at 37 °C for 30min, then washed with ice-cold PBS and finally stained with 1mg/mL PI in the dark at 4 °C for 30 min. The cellular DNA content for the cell cycle distribution analysis was performed with the system software (CellQuest; BD Biosciences), plotting at least 30,000 events per sample. The percentage of cells in the G1, S and G2 phases of the cell cycle were determined using the ModFit LT version 5.0 software package (Verity Software, Topsham, ME, USA).

[3] = HepG2, 48 h, representative plot

Cc1cc(O)c2c(c1)C(=O)c1cc(OCCCOC(=O)[C@@H](C)N)cc(O)c1C2=O.O=C(O)C(F)(F)F [Compound 7a, (R)-1-(3-(4,5-Dihydroxy-7-methyl-9,10-dioxo-9,10-dihydroanthracen-2-yloxy)propoxy)-1-oxopropan-2-aminium 2,2,2-trifluoroacetate]
Relative expression level, cytochrome c (cytochrome c; HepG2, 2.5 μM): 1.407 ± 0.015 | Relative expression level, cytochrome c (cytochrome c; HepG2, 5 μM): 1.663 ± 0.110 | Relative expression level, cytochrome c (cytochrome c; HepG2, 10 μM): 2.220 ± 0.387 | Relative expression level, Bcl-2 (Bcl-2; HepG2, 2.5 μM): 0.685 ± 0.025 | Relative expression level, Bcl-2 (Bcl-2; HepG2, 5 μM): 0.312 ± 0.012 | Relative expression level, Bcl-2 (Bcl-2; HepG2, 10 μM): 0.268 ± 0.022 | Relative expression level, Full length procaspase-3 (procaspase-3; HepG2, 2.5 μM): 0.78 ± 0.012 | Relative expression level, procaspase-3 (procaspase-3; HepG2, 2.5 μM): 0.510 ± 0.132 | Relative expression level, Full length procaspase-3 (procaspase-3; HepG2, 5 μM): 0.220 ± 0.019 | Relative expression level, procaspase-3 (procaspase-3; HepG2, 5 μM): 0.317 ± 0.031 | Relative expression level, Full length procaspase-3 (procaspase-3; HepG2, 10 μM): 0.152 ± 0.009 | Relative expression level, procaspase-3 (procaspase-3; HepG2, 10 μM): 0.170 ± 0.053 | Apoptosis percentage, Early apoptosis (HepG2 cells [1]; HepG2, 2.5 μM): 2.91 ± 0.45% | Apoptosis percentage, Late apoptosis (HepG2 cells [1]; HepG2, 2.5 μM): 3.69 ± 0.48% | Apoptosis percentage, Overall apoptosis (HepG2 cells [1]; HepG2, 2.5 μM): 6.59 ± 0.93% | percentage of apoptotic cells (HepG2 cells [1]; HepG2, 5 μM, 48 h): 22.2% | Apoptosis percentage, Early apoptosis (HepG2 cells [1]; HepG2, 5 μM): 15.93 ± 0.76% | Apoptosis percentage, Late apoptosis (HepG2 cells [1]; HepG2, 5 μM): 7.51 ± 0.68% | Apoptosis percentage, Overall apoptosis (HepG2 cells [1]; HepG2, 5 μM): 23.450 ± 1.07% | percentage of apoptotic cells (HepG2 cells [1]; HepG2, 10 μM, 48 h): 50.7% | Apoptosis percentage, Early apoptosis (HepG2 cells [1]; HepG2, 10 μM): 37.73 ± 0.97% | Apoptosis percentage, Late apoptosis (HepG2 cells [1]; HepG2, 10 μM): 14.63 ± 1.17% | Apoptosis percentage, Overall apoptosis (HepG2 cells [1]; HepG2, 10 μM): 52.00 ± 1.41% | viability at 2.5 µM (HepG2 cells [1]; Homo sapiens, HepG2, 2.5 μM, 48 h, representative plot, read-out: Q4 (Annexin V−/PI−, viable cells)): 93.3% | viability at 5 µM (HepG2 cells [1]; Homo sapiens, HepG2, 5.0 μM, 48 h, representative plot, read-out: Q4 (Annexin V−/PI−, viable cells)): 74.2% | viability at 10 µM (HepG2 cells [1]; Homo sapiens, HepG2, 10 μM, 48 h, representative plot, read-out: Q4 (Annexin V−/PI−, viable cells)): 46.9% | Relative expression level, Cleaved Caspase-3 (caspase-3; HepG2, 2.5 μM): 0.056 ± 0.011 | Relative expression level, Cleaved Caspase-3 (caspase-3; HepG2, 5 μM): 0.143 ± 0.013 | Relative expression level, Cleaved Caspase-3 (caspase-3; HepG2, 10 μM): 0.185 ± 0.026 | Relative expression level, procaspase-9 (procaspase-9; HepG2, 2.5 μM): 0.600 ± 0.082 | Relative expression level, procaspase-9 (procaspase-9; HepG2, 5 μM): 0.297 ± 0.058 | Relative expression level, procaspase-9 (procaspase-9; HepG2, 10 μM): 0.223 ± 0.029 | Cell cycle distribution, G0/G1 (HepG2 cells [2]; HepG2, 0.25 μM): 44.18 ± 1.79% | Cell cycle distribution, G2/M (HepG2 cells [2]; HepG2, 0.25 μM): 17.55 ± 0.90% | Cell cycle distribution, S (HepG2 cells [2]; HepG2, 0.25 μM): 38.25 ± 1.65% | Cell cycle distribution, G0/G1 (HepG2 cells [2]; HepG2, 0.5 μM): 56.49 ± 1.40% | Cell cycle distribution, G2/M (HepG2 cells [2]; HepG2, 0.5 μM): 24.81 ± 1.79% | Cell cycle distribution, S (HepG2 cells [2]; HepG2, 0.5 μM): 19.21 ± 1.33% | Cell cycle distribution, G0/G1 (HepG2 cells [2]; HepG2, 1 μM): 63.96 ± 2.42% | Cell cycle distribution, G2/M (HepG2 cells [2]; HepG2, 1 μM): 22.22 ±1.16% | Cell cycle distribution, S (HepG2 cells [2]; HepG2, 1 μM): 14.52 ± 1.43% | Dip G1 (G1 phase cells) (HepG2 cells [2]; [3]): 63.37% | Dip S (S phase cell population) (HepG2 cells [2]; [3]): 14.60%
